Test results from patent publication US20100190794A1, “Herbicidally Active Composition” (BASF SE, priority 2007, published 2010).

Key:
BRAPL = assay: greenhouse test, pre-emergence treatment; type: in vivo, Brachiaria plantaginea; conditions: 250 g/ha a.s.
Text: (§1) The culture containers used were plastic pots containing loamy sand with approximately 3.0% of humus as substrate. The seeds of the test plants were sown separately for each species.
(§2) For the pre-emergence treatment, the active compounds, suspended or emulsified in water, were applied directly after sowing by means of finely distributing nozzles. The containers were irrigated gently to promote germination and growth and subsequently covered with transparent plastic hoods until the plants had rooted. This cover caused uniform germination of the test plants unless this was adversely affected by the active compounds.
(§3) Depending on the species, the plants were kept at 10-25° C. and 20-35° C., respectively. The test period extended over 2 to 4 weeks. During this time, the plants were tended and their response to the individual treatments was evaluated.
(§4) Evaluation was carried out using a scale from 0 to 100. 100 means no emergence of the plants, or complete destruction of at least the above-ground parts, and 0 means no damage or normal course of growth. Good herbicidal activity is given at values of at least 70, and very good herbicidal activity is given at values of at least 85.
(§5) The respective stated components A and B, and if appropriate, C were formulated as a 5% by weight or 10% by weight strength emulsion concentrate or a commercially available formulation of component B was used and, with addition of the amount of solvent system, introduced into the spray liquor used for applying the active compound. In the examples, the solvent used was water.
(§6) The test period extended over 20 or 21 days. During this time, the plants were tended, and their reactions to the treatment with active compound was monitored.
(§7) What was evaluated was the damage by the chemical compositions using a scale of from 0 to 100%, in comparison to the untreated control plants. 0 means no damage, and 100 means complete destruction of the plants.
(§8) In the examples below, using the method of S. R. Colby (1967) “Calculating synergistic and antagonistic responses of herbicide combinations”, Weeds 15, p. 22 ff., the value E, which is expected if the activity of the individual active compounds is only additive, was calculated.
(§9) where X=percent activity using active compound A at an application rate a; Y=percent activity using active compound B at an application rate b; E=expected activity (in %) by A+B at application rates a+b.
(§10) If the value found in experiments is higher than the value E calculated according to Colby, a synergistic effect is present.

DIGSA [1] = assay: greenhouse test, pre-emergence treatment; type: in vivo, Digitaria sanguinalis; conditions: for Herbicidal action in % after 21 days against DIGSA: Use Example 9
Text: as §1, §2, §3, §4, §5, §6, §7, §8, §9, §10

AVEFA = assay: greenhouse test, pre-emergence treatment; type: in vivo, Avena fatua; conditions: Use Example 6
Text: as §1, §2, §3
(§11) Evaluation was carried out using a scale from 0 to 100. 100 means no emergence of the plants, or complete destruction of at least the above-ground parts, and 0 means no damage or normal course of growth. Good herbicidal activity is given at values of at least 70, and very good herbicidal activity is given at values of at least 85. […]
as §6
(§12) What was evaluated was the damage by the chemical compositions using a scale of from 0 to 100%, in comparison to the untreated control plants. […]
(§13) In the examples below, using the method of S. R. Colby (1967) “Calculating synergistic and antagonistic responses of herbicide combinations”, Weeds 15, p. 22 ff., the value E, which is expected if the activity of the individual active compounds is only additive, was calculated. […]
as §10

POAAN = assay: greenhouse test, pre-emergence treatment; type: in vivo, Poa annua
Text: as §1, §2, §3, §4, §5, §6, §7, §8, §9, §10

SETLU = assay: greenhouse test, pre-emergence treatment; type: in vivo, Setaria glauca; conditions: for Herbicidal action in % after 21 days against SETLU: Use Example 9
Text: as §1, §2, §3, §4, §5, §6, §7, §8, §9, §10

SETVI [2] = assay: greenhouse test, pre-emergence treatment; type: in vivo, Setaria viridis; conditions: 125 g/ha a.s., Use Example 11
Text: as §1, §2
Depending on the species, the plants were kept at 10-25° C. and 20-35° C., respectively. […] During this time, the plants were tended and their response to the individual treatments was evaluated. […]
as §6, §12, §13

LAMPU = assay: greenhouse test, pre-emergence treatment; type: in vivo, Lamium purpureum; conditions: 125 g/ha a.s., Use Example 11
Text: as §1, §2, §3, §4, §5, §6, §7, §8, §9, §10

SETFA = assay: greenhouse test, pre-emergence treatment; type: in vivo, Setaria faberi
Text: as §1, §2, §3, §4, §5, §6, §7, §8, §9, §10

ALOMY = assay: greenhouse test, post-emergence treatment; type: in vivo, Alopecurus myosuroides; conditions: Use Example 17
Description: as §1
(§14) For the post-emergence treatment, the test plants were grown to a plant height of from 3 to 15 cm, depending on the plant habit, and only then treated with the active compounds which had been suspended or emulsified in water. To this end, the test plants were either sown directly and grown in the same containers, or they were first grown separately as seedlings and transplanted into the test containers a few days prior to treatment.
as §3, §4, §5, §6, §7, §8, §9, §10

LOLMU = assay: greenhouse test, post-emergence treatment; type: in vivo, Lolium multiflorum; conditions: Use Example 17
Description: as §1, §14, §3, §4, §5, §6, §7, §8, §9, §10

SETVI [3] = assay: greenhouse test, post-emergence treatment; type: in vivo, Setaria viridis
Description: as §1, §14, §3, §4, §5, §6, §7, §8, §9, §10

DIGSA [4] = assay: greenhouse test, post-emergence treatment; type: in vivo, Digitaria sanguinalis; conditions: Use Example 18
Description: as §1, §14, §3, §11, §6, §12, §13, §10

CN1C(=O)C(C)(Cc2ccccc2)N(C)C(=O)C1=Cc1ccccc1C#N (stereo not drawn) [Example 20, 2-[5-Benzyl-1,4,5-trimethyl-3,6-dioxopiperazin-2-ylidenemethyl]benzo-nitrile]
Herbicidal action in % after 20 days against BRAPL (BRAPL; Use Example 5): 85%
Herbicidal action in % after 21 days against BRAPL (BRAPL; Use Example 9): 95%
Herbicidal action in % after 20 days against BRAPL (BRAPL; Use Example 12): 55%
Herbicidal action in % after 20 days against BRAPL (BRAPL; Use Example 16): 85%
Herbicidal action in % after 20 days against DIGSA (DIGSA [1]; 125 g/ha a.s., Use Example 5): 90%
Herbicidal action in % after 21 days against DIGSA (DIGSA [1]; 125 g/ha a.s.): 90%
Herbicidal action in % after 20 days against DIGSA (DIGSA [1]; 125 g/ha a.s., Use Example 14): 90%
Herbicidal action in % after 20 days against DIGSA (DIGSA [1]; 250 g/ha a.s., Use Example 5): 100%
Herbicidal action in % after 21 days against DIGSA (DIGSA [1]; 250 g/ha a.s.): 100%
Herbicidal action in % after 20 days against AVEFA (AVEFA; 250 g/ha a.s.): 20%
Herbicidal action in % after 20 days against AVEFA (AVEFA; 500 g/ha a.s.): 40%
Herbicidal action in % after 20 days against POAAN (POAAN; 125 g/ha a.s., Use Example 7): 60%
Herbicidal action in % after 20 days against POAAN (POAAN; 125 g/ha a.s., Use Example 15): 60%
Herbicidal action in % after 20 days against POAAN (POAAN; 250 g/ha a.s., Use Example 6): 85%
Herbicidal action in % after 20 days against POAAN (POAAN; 250 g/ha a.s., Use Example 7): 85%
Herbicidal action in % after 20 days against POAAN (POAAN; 250 g/ha a.s., Use Example 15): 85%
Herbicidal action in % after 20 days against POAAN (POAAN; 500 g/ha a.s., Use Example 6): 95%
Herbicidal action in % after 21 days against SETLU (SETLU; 125 g/ha a.s.): 90%
Herbicidal action in % after 20 days against SETLU (SETLU; 125 g/ha a.s., Use Example 14): 90%
Herbicidal action in % after 21 days against SETLU (SETLU; 250 g/ha a.s.): 100%
Herbicidal action in % after 20 days against SETLU (SETLU; 250 g/ha a.s., Use Example 16): 98%
Herbicidal action in % after 21 days against SETVI (SETVI [2]): 80%
Herbicidal action in % after 21 days against LAMPU (LAMPU): 75%
Herbicidal action in % after 20 days against SETFA (SETFA; 125 g/ha a.s., Use Example 12): 45%
Herbicidal action in % after 20 days against SETFA (SETFA; 125 g/ha a.s., Use Example 14): 95%
Herbicidal action in % after 20 days against SETFA (SETFA; 250 g/ha a.s., Use Example 12): 80%
Herbicidal action in % after 20 days against ALOMY (ALOMY; 125 g/ha a.s.): 40%
Herbicidal action in % after 20 days against ALOMY (ALOMY; 250 g/ha a.s.): 70%
Herbicidal action in % after 20 days against LOLMU (LOLMU; 125 g/ha a.s.): 15%
Herbicidal action in % after 20 days against LOLMU (LOLMU; 250 g/ha a.s.): 35%
Herbicidal action in % after 20 days against SETVI (SETVI [3]; 62.5 g/ha a.s., Use Example 18): 60%
Herbicidal action in % after 20 days against SETVI (SETVI [3]; 125 g/ha a.s., Use Example 17): 70%
Herbicidal action in % after 20 days against SETVI (SETVI [3]; 125 g/ha a.s., Use Example 18): 70%
Herbicidal action in % after 20 days against SETVI (SETVI [3]; 250 g/ha a.s., Use Example 17): 80%
Herbicidal action in % after 20 days against DIGSA (DIGSA [4]; 62.5 g/ha a.s.): 45%
Herbicidal action in % after 20 days against DIGSA (DIGSA [4]; 125 g/ha a.s.): 70%
